Patent US20240018157A1, “CYCLIC COMPOUNDS AND METHODS OF USING SAME” (Schrödinger, Inc., priority 2019, published 2024)

Columns and labels:
[1] = molecular target: full-length MALT1 protein His-MALT1(1-824) (Homo sapiens (Human), UniProt Q9UDY8); experiment: MALT1 protease assay, Assay 2 (1 nM MALT1, Ac-LRSR-AMC substrate); format: biochemical; details: 1 nM MALT1, 50 μM Ac-LRSR-AMC, 2 h pre-incubation, 8 hr incubation at RT
Outline: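 His-MALT1(1-824) from baculovirus-infected insect cells at 1 nM, preincubated 2 h at RT with compound (0.1% DMSO), then 50 μM Ac-LRSR-AMC in 50 mM Tris pH 7.5, 600 mM sodium citrate, 1 mM DTT, 1 mM EDTA, 0.05% BSA. Fluorescence (ex 355/em 460 nm) after 8 h at RT, normalized to enzyme and substrate-only controls. IC50 and Hill coefficient by non-linear regression.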

[2] = test system: IL10 secretion, OCI-LY10 cells; experiment: Human IL10 secretion assay, Assay 2 (Meso Scale Discovery); format: cell-based; details: 24 h incubation, MSD, read-out: IL-10 Secretion IC50 [nM] Assay 2
Protocol: (§1) IL10 is one of the cytokines that are regulated via activation of NF-kB signaling. For example, in ABC-DLBCL cell lines, the activated NF-kB signaling leads to increased IL10 secretion. Inhibition of NF-kB signaling has been shown leading to decreased IL10 secretion.
Assay 2: OCI-LY10 cells were seeded in IMEM supplemented with 20% fetal bovine serum at 4.8×10^5 cells per 160 μL per well in 96-well V-bottom cell culture plates (coming, 3894), treated with 120 nL of 3-fold serial compound dilutions, starting at 4 mM. The final vehicle concentration was 0.075% DMSO in all wells. After a 24 h incubation, human IL-10 pre-coated plates (Meso Scale Discovery) were washed 3 times with PBST, and 50 μL culture medium was aspirated into the MSD plate and incubated at 4° C. overnight. The supernatant was then discarded and the wells were washed 3 times with PBST. SULFO-TAG Anti-human IL-10 Antibody (50×) was diluted 50 fold according to the Meso Scale Protocol, then 25 μL of SULFO-TAG Anti-human IL-10 Antibody (1×) was added. After 2 h of incubation at RT, the supernatant was discarded and the well was washed 3 times with PBST. 2× read buffer was added and the signal was read on an MSD Sector S600. The effect of a particular compound on IL10 secretion is shown relative to the effect of DMSO; set as 100%. IC50 values (nM) were determined using 4-parametric curve-fitting.

[3] = test system: IL10 secretion, OCI-LY10 cells; experiment: Human IL10 secretion assay, Assay 1 (HTRF); format: cell-based; details: 24 h incubation, read-out: IL-10 Secretion IC50 [nM] Assay 1
Protocol: as §1
Assay 1: OCI-LY10 cells were seeded in IMEM supplemented with 20% fetal bovine serum at 3×10^5 cells per well in 96-well round bottom plates (Corning 3799, Corning), treated with 100 nL of 3-fold serial compound dilutions, starting at 10 mM. The final vehicle concentration was 0.1% DMSO in all wells. After 24 h incubation, the cells were transferred to 96-PCR plates (Axygen: PCR-96-FLT-C) and centrifuged, then 16 μL of cell culture media was transferred to HTRF plates and IL10 levels were measured using human IL-10 Assay Kits (Cisbio) using HTRF format. The signals were transformed to percentage of remaining activity by using the high control (HC, median of signal from wells containing cells treated with DMSO) and low control (LC, median of signal from wells with no cells). IC50 values (nM) were determined using 4-parametric curve-fitting and Hill coefficient were obtained using Graph Pad Prism (Graph Pad software, Inc, USA) with non-linear regression analysis.

Chain of full-length MALT1 protein His-MALT1(1-824) (Q9UDY8 whole entry): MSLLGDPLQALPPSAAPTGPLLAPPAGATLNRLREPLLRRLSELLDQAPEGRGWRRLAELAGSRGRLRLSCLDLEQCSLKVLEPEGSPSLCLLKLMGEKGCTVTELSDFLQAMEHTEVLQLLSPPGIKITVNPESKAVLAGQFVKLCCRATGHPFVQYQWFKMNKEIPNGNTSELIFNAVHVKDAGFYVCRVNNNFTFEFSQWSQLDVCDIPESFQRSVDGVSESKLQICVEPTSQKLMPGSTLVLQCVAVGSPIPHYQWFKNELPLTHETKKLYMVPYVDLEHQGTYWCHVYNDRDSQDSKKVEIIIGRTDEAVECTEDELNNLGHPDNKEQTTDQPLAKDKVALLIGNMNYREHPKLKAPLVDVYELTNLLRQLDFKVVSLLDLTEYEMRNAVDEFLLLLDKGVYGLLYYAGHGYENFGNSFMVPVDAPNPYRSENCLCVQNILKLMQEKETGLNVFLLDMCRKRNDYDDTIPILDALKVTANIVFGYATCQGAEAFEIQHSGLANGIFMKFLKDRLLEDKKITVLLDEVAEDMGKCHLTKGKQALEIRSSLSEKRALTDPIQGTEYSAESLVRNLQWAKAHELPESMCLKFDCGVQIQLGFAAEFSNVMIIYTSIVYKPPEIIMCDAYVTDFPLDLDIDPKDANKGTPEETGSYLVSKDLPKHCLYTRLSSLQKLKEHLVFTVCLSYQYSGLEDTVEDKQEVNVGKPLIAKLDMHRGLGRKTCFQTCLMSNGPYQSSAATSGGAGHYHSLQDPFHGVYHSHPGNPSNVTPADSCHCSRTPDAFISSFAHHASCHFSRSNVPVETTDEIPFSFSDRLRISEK

IC50 [1] | IC50 [2] | IC50 [3] | SMILES
10 to 100 nM | 100 to 1000 nM |  | C[C@@]1(C(F)(F)F)CN(C(=O)Nc2cc(C(F)(F)F)ncc2F)c2cnc3cc(Cl)nn3c21 [compound 96, (R)-2-chloro-N-(5-fluoro-2-(trifluoromethyl)pyridin-4-yl)-8-methyl-8-(trifluoromethyl)-7,8-dihydro-6H-pyrazolo[1,5-a]pyrrolo[2,3-e]pyrimidine-6-carboxamide]
10 to 100 nM | 10 to 100 nM | 100 to 1000 nM | CC(O)c1cnnn1-c1ncc(NC(=O)N2C[C@@](C)(C(F)(F)F)c3c2cnc2cc(F)nn32)cc1C(F)F (stereo partly drawn) [compound 188, (8R)-N-(5-(difluoromethyl)-6-(5-(1-hydroxyethyl)-1H-1,2,3-triazol-1-yl)pyridin-3-yl)-2-fluoro-8-methyl-8-(trifluoromethyl)-7,8-dihydro-6H-pyrazolo[1,5-a]pyrrolo[2,3-e]pyrimidine-6-carboxamide]
 | 10 to 100 nM | 10 to 100 nM | C[C@@]1(C(F)(F)F)CN(C(=O)Nc2cnc(-n3nccn3)c(C(F)F)c2)c2cnc3cc(Cl)nn3c21 [compound 35, (R)-2-chloro-N-(5-(difluoromethyl)-6-(2H-1,2,3-triazol-2-yl)pyridin-3-yl)-8-methyl-8-(trifluoromethyl)-7,8-dihydro-6H-pyrazolo[1,5-a]pyrrolo[2,3-e]pyrimidine-6-carboxamide]
 | 10 to 100 nM | 10 to 100 nM | Cc1cc(NC(=O)N2C[C@@](C)(C(F)(F)F)c3c2cnc2cc(F)nn32)cnc1-n1nccn1 [compound 125, (R)-2-fluoro-8-methyl-N-(5-methyl-6-(2H-1,2,3-triazol-2-yl)pyridin-3-yl)-8-(trifluoromethyl)-7,8-dihydro-6H-pyrazolo[1,5-a]pyrrolo[2,3-e]pyrimidine-6-carboxamide]
 | 10 to 100 nM | 10 to 100 nM | CN(C)C(=O)c1ncc(NC(=O)N2C[C@@](C)(C(F)(F)F)c3c2cnc2cc(Cl)nn32)cc1C(F)F [compound 122, (R)-2-chloro-N-(5-(difluoromethyl)-6-(dimethylcarbamoyl)pyridin-3-yl)-8-methyl-8-(trifluoromethyl)-7,8-dihydro-6H-pyrazolo[1,5-a]pyrrolo[2,3-e]pyrimidine-6-carboxamide]
10 to 100 nM | 10 to 100 nM |  | COc1cn(-c2ncc(NC(=O)N3C[C@@](C)(C(F)(F)F)c4c3cnc3cc(Cl)nn43)cc2Cl)nn1 [compound 95, (R)-2-chloro-N-(5-chloro-6-(4-methoxy-1H-1,2,3-triazol-1-yl)pyridin-3-yl)-8-methyl-8-(trifluoromethyl)-7,8-dihydro-6H-pyrazolo[1,5-a]pyrrolo[2,3-e]pyrimidine-6-carboxamide]
10 to 100 nM | 10 to 100 nM | 10 to 100 nM | CN1CC[C@H](Oc2cc(NC(=O)N3C[C@@](C)(C(F)(F)F)c4c3cnc3cc(Cl)nn43)cc(C(F)F)n2)C1 [compound 111, (R)-2-chloro-N-(2-(difluoromethyl)-6-(((S)-1-methylpyrrolidin-3-yl)oxy)pyridin-4-yl)-8-methyl-8-(trifluoromethyl)-7,8-dihydro-6H-pyrazolo[1,5-a]pyrrolo[2,3-e]pyrimidine-6-carboxamide]
10 to 100 nM | 10 to 100 nM | 10 to 100 nM | CN(C)C(=O)c1ncc(NC(=O)N2C[C@@](C)(C(F)(F)F)c3c2cnc2cc(Cl)nn32)cc1Cl [compound 123, (R)-2-chloro-N-(5-chloro-6-(dimethylcarbamoyl)pyridin-3-yl)-8-methyl-8-(trifluoromethyl)-7,8-dihydro-6H-pyrazolo[1,5-a]pyrrolo[2,3-e]pyrimidine-6-carboxamide]
10 to 100 nM | 10 to 100 nM | 100 to 1000 nM | C[C@@]1(C(F)(F)F)CN(C(=O)Nc2cc(OC(F)F)cc(O[C@H]3CCNC3)n2)c2cnc3cc(Cl)nn3c21 [compound 133, (R)-2-chloro-N-(4-(difluoromethoxy)-6-(((S)-pyrrolidin-3-yl)oxy)pyridin-2-yl)-8-methyl-8-(trifluoromethyl)-7,8-dihydro-6H-pyrazolo[1,5-a]pyrrolo[2,3-e]pyrimidine-6-carboxamide]
10 to 100 nM | 10 to 100 nM | 100 to 1000 nM | C[C@@]1(C(F)(F)F)CN(C(=O)Nc2cnc(N3CCOC3=O)c(C(F)F)c2)c2cnc3cc(Cl)nn3c21 [compound 113, (R)-2-chloro-N-(5-(difluoromethyl)-6-(2-oxooxazolidin-3-yl)pyridin-3-yl)-8-methyl-8-(trifluoromethyl)-7,8-dihydro-6H-pyrazolo[1,5-a]pyrrolo[2,3-e]pyrimidine-6-carboxamide]
 | 10 to 100 nM | 10 to 100 nM | CN(C(=O)c1ncc(NC(=O)N2C[C@@](C)(C(F)(F)F)c3c2cnc2cc(Cl)nn32)cc1C(F)F)C1CC1 [compound 151, (R)-2-chloro-N-(6-(cyclopropyl(methyl)carbamoyl)-5-(difluoromethyl)pyridin-3-yl)-8-methyl-8-(trifluoromethyl)-7,8-dihydro-6H-pyrazolo[1,5-a]pyrrolo[2,3-e]pyrimidine-6-carboxamide]
 | 10 to 100 nM | 10 to 100 nM | C[C@@]1(C(F)(F)F)CN(C(=O)Nc2cnc(OC(F)F)c(Cl)c2)c2cnc3cc(Cl)nn3c21 [compound 49, (R)-2-chloro-N-(5-chloro-6-(difluoromethoxy)pyridin-3-yl)-8-methyl-8-(trifluoromethyl)-7,8-dihydro-6H-pyrazolo[1,5-a]pyrrolo[2,3-e]pyrimidine-6-carboxamide]
10 to 100 nM | 10 to 100 nM | 100 to 1000 nM | C[C@@]1(C(F)(F)F)CN(C(=O)Nc2cnc(-n3cncn3)c(Cl)c2)c2cnc3cc(F)nn3c21 [compound 202, (R)-N-(5-chloro-6-(1H-1,2,4-triazol-1-yl)pyridin-3-yl)-2-fluoro-8-methyl-8-(trifluoromethyl)-7,8-dihydro-6H-pyrazolo[1,5-a]pyrrolo[2,3-e]pyrimidine-6-carboxamide]
10 to 100 nM | 10 to 100 nM | 100 to 1000 nM | Cc1cn2ncc3c(c2n1)C(C)(C)CN3C(=O)Nc1cnc(-n2nccn2)c(Cl)c1 [compound 134, N-(5-chloro-6-(2H-1,2,3-triazol-2-yl)pyridin-3-yl)-2,9,9-trimethyl-8,9-dihydro-7H-imidazo[1,2-b]pyrrolo[3,2-d]pyridazine-7-carboxamide]
 | 10 to 100 nM | 10 to 100 nM | C[C@@]1(C(F)(F)F)CN(C(=O)Nc2cnc(-n3nccn3)c(Cl)c2)c2cnc3cc(F)nn3c21 [compound 39, (R)-N-(5-chloro-6-(2H-1,2,3-triazol-2-yl)pyridin-3-yl)-2-fluoro-8-methyl-8-(trifluoromethyl)-7,8-dihydro-6H-pyrazolo[1,5-a]pyrrolo[2,3-e]pyrimidine-6-carboxamide]
